Structures can show the parent of a compound that is named as a salt.
Legend:
[1] = test system: COR-L23; test: cells; format: functional, cell-based, Homo sapiens;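 also: cell viability assay measuring how strongly compounds suppress growth of COR-L23 cells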
Description: SANGER: Inhibition of human COR-L23 cell growth in a cell viability assay.

[2] = test system: DOK; test: cells; format: functional, cell-based, Homo sapiens;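 also: cell viability assay read-out, values reflect inhibition of cell growth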
Description: SANGER: Inhibition of human DOK cell growth in a cell viability assay.

[3] = test system: GCT; test: cells; format: functional, cell-based, Homo sapiens;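 also: GCT cell line proliferation inhibition, read out with a cell viability assay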
Description: SANGER: Inhibition of human GCT cell growth in a cell viability assay.

[4] = test system: HCC1599; test: cells; format: functional, cell-based, Homo sapiens;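 also: growth inhibition of HCC1599 cells, read out in a cell viability assay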
Description: SANGER: Inhibition of human HCC1599 cell growth in a cell viability assay.

[5] = test system: HCC1806; test: cells; format: functional, cell-based, Homo sapiens;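 also: growth inhibition of the cancer cell line, determined with a cell viability assay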
Description: SANGER: Inhibition of human HCC1806 cell growth in a cell viability assay.

[6] = test system: HLE; test: cells; format: functional, cell-based, Homo sapiens;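 also: growth inhibition of human HLE cells, read out by a cell viability assay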
Description: SANGER: Inhibition of human HLE cell growth in a cell viability assay.

[7] = test system: HO-1-N-1; test: cells; format: functional, cell-based, Homo sapiens;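 also: growth inhibition of human HO-1-N-1 cells, read out with a cell viability assay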
Description: SANGER: Inhibition of human HO-1-N-1 cell growth in a cell viability assay.

[8] = test system: HuP-T4; test: cells; format: functional, cell-based, Homo sapiens;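 also: cell viability assay measuring how much HuP-T4 cell growth is inhibited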
Description: SANGER: Inhibition of human HuP-T4 cell growth in a cell viability assay.

[9] = test system: KYSE-410; test: cells; format: functional, cell-based, Homo sapiens;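 also: growth inhibition of KYSE-410 cells, measured through a cell viability readout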
Description: SANGER: Inhibition of human KYSE-410 cell growth in a cell viability assay.

[10] = test system: LC4-1; test: cells; format: functional, cell-based, Homo sapiens;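 also: growth inhibition of LC4-1 cells, read out with a cell viability assay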
Description: SANGER: Inhibition of human LC4-1 cell growth in a cell viability assay.

[11] = test system: LP-1; test: cells; format: functional, cell-based, Homo sapiens;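 also: growth inhibition of human LP-1 cells, with the read-out taken from a cell viability assay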
Description: SANGER: Inhibition of human LP-1 cell growth in a cell viability assay.

[12] = test system: LU-99A; test: cells; format: functional, cell-based, Homo sapiens;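 also: growth inhibition of LU-99A cells, read out with a cell viability assay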
Description: SANGER: Inhibition of human LU-99A cell growth in a cell viability assay.

[13] = test system: M059J; test: cells; format: functional, cell-based, Homo sapiens;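 also: growth inhibition of M059J cells, read out with a cell viability assay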
Description: SANGER: Inhibition of human M059J cell growth in a cell viability assay.

[14] = test system: MDA-MB-453; test: cells; format: functional, cell-based, Homo sapiens
Description: SANGER: Inhibition of human MDA-MB-453 cell growth in a cell viability assay.

[15] = test system: MHH-CALL-2; test: cells; format: functional, cell-based, Homo sapiens;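 also: growth inhibition of the cell line, read out in a cell viability assay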
Description: SANGER: Inhibition of human MHH-CALL-2 cell growth in a cell viability assay.

[16] = test system: NCI-H1417; test: cells; format: functional, cell-based, Homo sapiens;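 also: human NCI-H1417 cells, growth inhibition determined with a cell viability readout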
Description: SANGER: Inhibition of human NCI-H1417 cell growth in a cell viability assay.

[17] = test system: NCI-H1436; test: cells; format: functional, cell-based, Homo sapiens;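 also: growth suppression of human NCI-H1436 cells, determined with a cell viability readout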
Description: SANGER: Inhibition of human NCI-H1436 cell growth in a cell viability assay.

[18] = test system: NCI-H2030; test: cells; format: functional, cell-based, Homo sapiens;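 also: growth inhibition of human NCI-H2030 cells, read out by a cell viability assay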
Description: SANGER: Inhibition of human NCI-H2030 cell growth in a cell viability assay.

[19] = test system: NCI-H2405; test: cells; format: functional, cell-based, Homo sapiens;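 also: growth inhibition of the human cell line, read out with a cell viability assay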
Description: SANGER: Inhibition of human NCI-H2405 cell growth in a cell viability assay.

[20] = test system: NCI-H322M; test: cells; format: functional, cell-based, Homo sapiens;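 also: cell viability assay measuring inhibition of growth of human NCI-H322M cells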
Description: SANGER: Inhibition of human NCI-H322M cell growth in a cell viability assay.

[21] = test system: NCI-H441; test: cells; format: functional, cell-based, Homo sapiens;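 also: growth inhibition of NCI-H441 cells, read out with a cell viability assay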
Description: SANGER: Inhibition of human NCI-H441 cell growth in a cell viability assay.

[22] = test system: NUGC-3; test: cells; format: functional, cell-based, Homo sapiens;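 also: growth inhibition of human NUGC-3 cells, read out with a cell viability assay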
Description: SANGER: Inhibition of human NUGC-3 cell growth in a cell viability assay.

[23] = test system: OVCAR-3; test: cells; format: functional, cell-based, Homo sapiens;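 also: growth inhibition of human OVCAR-3 cells, determined by a cell viability assay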
Description: SANGER: Inhibition of human OVCAR-3 cell growth in a cell viability assay.

[24] = test system: RD; test: cells; format: functional, cell-based, Homo sapiens
Description: SANGER: Inhibition of human RD cell growth in a cell viability assay.

[25] = test system: RERF-LC-MS; test: cells; format: functional, cell-based, Homo sapiens;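 also: growth inhibition of human RERF-LC-MS cells, read out by a cell viability assay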
Description: SANGER: Inhibition of human RERF-LC-MS cell growth in a cell viability assay.

[26] = test system: RL; test: cells; format: functional, cell-based, Homo sapiens
Description: SANGER: Inhibition of human RL cell growth in a cell viability assay.

[27] = test system: RPMI-7951; test: cells; format: functional, cell-based, Homo sapiens
Description: SANGER: Inhibition of human RPMI-7951 cell growth in a cell viability assay.

[28] = test system: SAS; test: cells; format: functional, cell-based, Homo sapiens;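 also: growth inhibition of SAS cells, read out with a cell viability assay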
Description: SANGER: Inhibition of human SAS cell growth in a cell viability assay.

[29] = test system: SCC-25; test: cells; format: functional, cell-based, Homo sapiens;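 also: growth inhibition of SCC-25 cells, measured with a cell viability assay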
Description: SANGER: Inhibition of human SCC-25 cell growth in a cell viability assay.

[30] = test system: SK-N-AS; test: cells; format: functional, cell-based, Homo sapiens;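 also: growth inhibition of human SK-N-AS cells, measured with a cell viability assay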
Description: SANGER: Inhibition of human SK-N-AS cell growth in a cell viability assay.

[31] = test system: ST486; test: SANGER: Inhibition of human ST486 cell growth in a cell viability assay.; format: functional, cell-based
[32] = test system: SU-DHL-1; test: SANGER: Inhibition of human SU-DHL-1 cell growth in a cell viability assay.; format: functional, cell-based
[33] = test system: SW1463; test: cells; format: functional, cell-based, Homo sapiens;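 also: growth inhibition of SW1463 cells, determined with a cell viability assay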
Description: SANGER: Inhibition of human SW1463 cell growth in a cell viability assay.

[34] = test system: SW1710; test: cells; format: functional, cell-based, Homo sapiens;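 also: growth inhibition of SW1710 cells, determined with a cell viability assay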
Description: SANGER: Inhibition of human SW1710 cell growth in a cell viability assay.

[35] = test system: SW48; test: cells; format: functional, cell-based, Homo sapiens;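 also: growth inhibition of SW48 cells, read out with a cell viability assay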
Description: SANGER: Inhibition of human SW48 cell growth in a cell viability assay.

[36] = test system: SW948; test: cells; format: functional, cell-based, Homo sapiens;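 also: growth inhibition of SW948 cells, read out with a cell viability assay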
Description: SANGER: Inhibition of human SW948 cell growth in a cell viability assay.

[37] = test system: 23132-87; test: cells; format: functional, cell-based, Homo sapiens
Description: SANGER: Inhibition of human 23132-87 cell growth in a cell viability assay.

[38] = test system: ABC-1; test: cells; format: functional, cell-based, Homo sapiens;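 also: growth inhibition of human ABC-1 cells, read out by a cell viability assay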
Description: SANGER: Inhibition of human ABC-1 cell growth in a cell viability assay.

[39] = test system: AU565; test: cells; format: functional, cell-based, Homo sapiens;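 also: cell viability assay measuring growth inhibition of human AU565 cells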
Description: SANGER: Inhibition of human AU565 cell growth in a cell viability assay.

[40] = test system: BEN; test: cells; format: functional, cell-based, Homo sapiens;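 also: growth inhibition of the BEN cell line, read out with a cell viability assay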
Description: SANGER: Inhibition of human BEN cell growth in a cell viability assay.

[41] = test system: CAL-39; test: cells; format: functional, cell-based, Homo sapiens;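 also: cell viability assay measuring growth inhibition of CAL-39 cells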
Description: SANGER: Inhibition of human CAL-39 cell growth in a cell viability assay.

[42] = test system: CAL-72; test: cells; format: functional, cell-based, Homo sapiens;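 also: cell viability assay measuring inhibition of proliferation in the CAL-72 cell line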
Description: SANGER: Inhibition of human CAL-72 cell growth in a cell viability assay.

[43] = test system: U-118-MG; test: cells; format: functional, cell-based, Homo sapiens
Description: SANGER: Inhibition of human U-118-MG cell growth in a cell viability assay.

[44] = test system: UACC-62; test: cells; format: functional, cell-based, Homo sapiens;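 also: growth inhibition of human UACC-62 cells, read out by a cell viability assay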
Description: SANGER: Inhibition of human UACC-62 cell growth in a cell viability assay.

[45] = test system: CAMA-1; test: cells; format: functional, cell-based, Homo sapiens;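 also: growth inhibition of CAMA-1 cells, read out with a cell viability assay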
Description: SANGER: Inhibition of human CAMA-1 cell growth in a cell viability assay.

[46] = test system: CESS; test: SANGER: Inhibition of human CESS cell growth in a cell viability assay.; format: functional, cell-based
[47] = test system: COLO-678; test: cells; format: functional, cell-based, Homo sapiens
Description: SANGER: Inhibition of human COLO-678 cell growth in a cell viability assay.

## O=C(O)c1ccc(-c2c[nH]c3ncc(-c4ccccc4)cc23)cc1C1CCCC1 [GSK-650394]
[1]; Homo sapiens, COR-L23
  IC50: 4.76 µM
[2]; Homo sapiens, DOK
  IC50: > 16 µM
[3]; Homo sapiens, GCT
  IC50: > 16 µM
[4]; Homo sapiens, HCC1599
  IC50: > 16 µM
[5]; Homo sapiens, HCC1806
  IC50: > 16 µM
[6]; Homo sapiens, HLE
  IC50: 1.43 µM
[7]; Homo sapiens, HO-1-N-1
  IC50: > 16 µM
[8]; Homo sapiens, HuP-T4
  IC50: 8.5 µM
[9]; Homo sapiens, KYSE-410
  IC50: > 16 µM
[10]; Homo sapiens, LC4-1
  IC50: > 16 µM
[11]; Homo sapiens, LP-1
  IC50: > 16 µM
[12]; Homo sapiens, LU-99A
  IC50: > 16 µM
[13]; Homo sapiens, M059J
  IC50: > 16 µM
[14]; Homo sapiens, MDA-MB-453
  IC50: > 16 µM
[15]; Homo sapiens, MHH-CALL-2
  IC50: > 16 µM
[16]; Homo sapiens, NCI-H1417
  IC50: > 16 µM
[17]; Homo sapiens, NCI-H1436
  IC50: > 16 µM
[18]; Homo sapiens, NCI-H2030
  IC50: > 16 µM
[19]; Homo sapiens, NCI-H2405
  IC50: > 16 µM
[20]; Homo sapiens, NCI-H322M
  IC50: > 16 µM
[21]; Homo sapiens, NCI-H441
  IC50: > 16 µM
[22]; Homo sapiens, NUGC-3
  IC50: > 16 µM
[23]; Homo sapiens, OVCAR-3
  IC50: > 16 µM
[24]; Homo sapiens, RD
  IC50: > 16 µM
[25]; Homo sapiens, RERF-LC-MS
  IC50: > 16 µM
[26]; Homo sapiens, RL
  IC50: > 16 µM
[27]; Homo sapiens, RPMI-7951
  IC50: > 16 µM
[28]; Homo sapiens, SAS
  IC50: > 16 µM
[29]; Homo sapiens, SCC-25
  IC50: > 16 µM
[30]; Homo sapiens, SK-N-AS
  IC50: > 16 µM
[31]; Homo sapiens, ST486
  IC50: > 16 µM
[32]; Homo sapiens, SU-DHL-1
  IC50: > 16 µM
[33]; Homo sapiens, SW1463
  IC50: > 16 µM
[34]; Homo sapiens, SW1710
  IC50: 2.7 µM
[35]; Homo sapiens, SW48
  IC50: > 16 µM
[36]; Homo sapiens, SW948
  IC50: > 16 µM
[37]; Homo sapiens
  IC50: 10.3 µM
[38]; Homo sapiens, ABC-1
  IC50: 6.58 µM
[39]; Homo sapiens, AU565
  IC50: > 16 µM
[40]; Homo sapiens, BEN
  IC50: > 16 µM
[41]; Homo sapiens, CAL-39
  IC50: 9.31 µM
[42]; Homo sapiens, CAL-72
  IC50: > 16 µM
[43]; Homo sapiens, U-118-MG
  IC50: > 16 µM
[44]; Homo sapiens, UACC-62
  IC50: > 16 µM
[45]; Homo sapiens, CAMA-1
  IC50: > 16 µM
[46]; Homo sapiens, CESS
  IC50: > 16 µM
[47]; Homo sapiens, COLO-678
  IC50: > 16 µM

## COC1=CC(c2cc3ccccc3[nH]2)=N/C1=C\c1[nH]c(C)cc1C [OBATOCLAX MESYLATE]
[1]; Homo sapiens, COR-L23
  IC50: 0.0613 µM
[2]; Homo sapiens, DOK
  IC50: 0.848 µM
[3]; Homo sapiens, GCT
  IC50: 2.59 µM
[4]; Homo sapiens, HCC1599
  IC50: 0.5 µM
[5]; Homo sapiens, HCC1806
  IC50: 0.124 µM
[6]; Homo sapiens, HLE
  IC50: 0.169 µM
[7]; Homo sapiens, HO-1-N-1
  IC50: 0.0925 µM
[8]; Homo sapiens, HuP-T4
  IC50: 0.0412 µM
[9]; Homo sapiens, KYSE-410
  IC50: 0.098 µM
[10]; Homo sapiens, LC4-1
  IC50: 0.514 µM
[11]; Homo sapiens, LP-1
  IC50: 0.213 µM
[12]; Homo sapiens, LU-99A
  IC50: 0.784 µM
[13]; Homo sapiens, M059J
  IC50: 1.36 µM
[14]; Homo sapiens, MDA-MB-453
  IC50: 2.23 µM
[15]; Homo sapiens, MHH-CALL-2
  IC50: 0.609 µM
[16]; Homo sapiens, NCI-H1417
  IC50: 0.265 µM
[17]; Homo sapiens, NCI-H1436
  IC50: 1.26 µM
[18]; Homo sapiens, NCI-H2030
  IC50: 0.227 µM
[19]; Homo sapiens, NCI-H2405
  IC50: 0.347 µM
[20]; Homo sapiens, NCI-H322M
  IC50: > 16 µM
[21]; Homo sapiens, NCI-H441
  IC50: 0.191 µM
[22]; Homo sapiens, NUGC-3
  IC50: 0.0305 µM
[23]; Homo sapiens, OVCAR-3
  IC50: 0.516 µM
[24]; Homo sapiens, RD
  IC50: 0.14 µM
[25]; Homo sapiens, RERF-LC-MS
  IC50: 1.06 µM
[26]; Homo sapiens, RL
  IC50: > 16 µM
[27]; Homo sapiens, RPMI-7951
  IC50: 0.51 µM
[28]; Homo sapiens, SAS
  IC50: 0.273 µM
[29]; Homo sapiens, SCC-25
  IC50: 0.0449 µM
[30]; Homo sapiens, SK-N-AS
  IC50: 1.05 µM
[31]; Homo sapiens, ST486
  IC50: < 0.0625 µM
[32]; Homo sapiens, SU-DHL-1
  IC50: 1.25 µM
[33]; Homo sapiens, SW1463
  IC50: 1.32 µM
[34]; Homo sapiens, SW1710
  IC50: 0.0402 µM
[35]; Homo sapiens, SW48
  IC50: 0.773 µM
[36]; Homo sapiens, SW948
  IC50: 7.58 µM
[37]; Homo sapiens
  IC50: 0.828 µM
[38]; Homo sapiens, ABC-1
  IC50: 0.505 µM
[39]; Homo sapiens, AU565
  IC50: 0.425 µM
[40]; Homo sapiens, BEN
  IC50: 1.07 µM
[41]; Homo sapiens, CAL-39
  IC50: 0.229 µM
[42]; Homo sapiens, CAL-72
  IC50: 0.534 µM
[43]; Homo sapiens, U-118-MG
  IC50: 0.409 µM
[44]; Homo sapiens, UACC-62
  IC50: 0.302 µM
[45]; Homo sapiens, CAMA-1
  IC50: 0.436 µM
[46]; Homo sapiens, CESS
  IC50: 0.0827 µM
[47]; Homo sapiens, COLO-678
  IC50: 3.38 µM

## BLEOMYCIN
[1]; cor-l23
  IC50: 0.0755 µM
[2]; dok
  IC50: 322 µM
[3]; gct
  IC50: 4.99 µM
[4]; hcc1599
  IC50: 3.37 µM
[5]; hcc1806
  IC50: 0.00854 µM
[6]; hle
  IC50: 4 µM
[7]; ho-1-n-1
  IC50: 4.42 µM
[8]; hup-t4
  IC50: 1.31 µM
[9]; kyse-410
  IC50: 8.15 µM
[10]; lc4-1
  IC50: 11.2 µM
[11]; lp-1
  IC50: 307 µM
[12]; lu-99a
  IC50: 0.00422 µM
[13]; m059j
  IC50: 3.77 µM
[14]; mda-mb-453
  IC50: 15.4 µM
[15]; mhh-call-2
  IC50: 0.535 µM
[16]; nci-h1417
  IC50: 30.4 µM
[17]; nci-h1436
  IC50: 2770 µM
[18]; nci-h2030
  IC50: 5.22 µM
[19]; nci-h2405
  IC50: 4.28 µM
[20]; nci-h322m
  IC50: 7320 µM
[21]; nci-h441
  IC50: 9.05 µM
[22]; nugc-3
  IC50: 1.13 µM
[23]; ovcar-3
  IC50: 123 µM
[24]; rd
  IC50: 106 µM
[25]; rerf-lc-ms
  IC50: 48.7 µM
[26]; rl
  IC50: 2270 µM
[27]; rpmi-7951
  IC50: 1.24 µM
[28]; sas
  IC50: 3.26 µM
[29]; scc-25
  IC50: 0.415 µM
[30]; sk-n-as
  IC50: 1950 µM
[31]; st486
  IC50: 6.39 µM
[32]; su-dhl-1
  IC50: 2.05 µM
[33]; sw1463
  IC50: 23.4 µM
[34]; sw1710
  IC50: 0.295 µM
[35]; sw48
  IC50: 0.546 µM
[36]; sw948
  IC50: 354 µM
[37]
  IC50: 0.131 µM
[38]; abc-1
  IC50: 19.7 µM
[39]; au565
  IC50: 2.05 µM
[40]; ben
  IC50: 46 µM
[41]; cal-39
  IC50: 0.000315 µM
[42]; cal-72
  IC50: 580 µM
[43]; u-118-mg
  IC50: 65.7 µM
[44]; uacc-62
  IC50: 188 µM
[45]; cama-1
  IC50: 17.5 µM
[46]; cess
  IC50: 0.000546 µM
[47]; colo-678
  IC50: 36.2 µM
